For this test, the target named is Lethal factor (Bacillus anthracis) (UniProt P15917). The experiment in a line: Bacillus anthracis LF protease inhibitors, dose response, biochemical, multiplex microsphere, cherry pick 1 compounds (AID 602178). To be noted: multiplex microsphere protease cleavage assay, LF inhibition.

Structures are written as SMILES. Calls of active or inactive are those of the source. No rule for the calls is given here. Some results are limits rather than exact numbers.

Sequence of Lethal factor (Bacillus anthracis) (P15917 whole entry, looked up): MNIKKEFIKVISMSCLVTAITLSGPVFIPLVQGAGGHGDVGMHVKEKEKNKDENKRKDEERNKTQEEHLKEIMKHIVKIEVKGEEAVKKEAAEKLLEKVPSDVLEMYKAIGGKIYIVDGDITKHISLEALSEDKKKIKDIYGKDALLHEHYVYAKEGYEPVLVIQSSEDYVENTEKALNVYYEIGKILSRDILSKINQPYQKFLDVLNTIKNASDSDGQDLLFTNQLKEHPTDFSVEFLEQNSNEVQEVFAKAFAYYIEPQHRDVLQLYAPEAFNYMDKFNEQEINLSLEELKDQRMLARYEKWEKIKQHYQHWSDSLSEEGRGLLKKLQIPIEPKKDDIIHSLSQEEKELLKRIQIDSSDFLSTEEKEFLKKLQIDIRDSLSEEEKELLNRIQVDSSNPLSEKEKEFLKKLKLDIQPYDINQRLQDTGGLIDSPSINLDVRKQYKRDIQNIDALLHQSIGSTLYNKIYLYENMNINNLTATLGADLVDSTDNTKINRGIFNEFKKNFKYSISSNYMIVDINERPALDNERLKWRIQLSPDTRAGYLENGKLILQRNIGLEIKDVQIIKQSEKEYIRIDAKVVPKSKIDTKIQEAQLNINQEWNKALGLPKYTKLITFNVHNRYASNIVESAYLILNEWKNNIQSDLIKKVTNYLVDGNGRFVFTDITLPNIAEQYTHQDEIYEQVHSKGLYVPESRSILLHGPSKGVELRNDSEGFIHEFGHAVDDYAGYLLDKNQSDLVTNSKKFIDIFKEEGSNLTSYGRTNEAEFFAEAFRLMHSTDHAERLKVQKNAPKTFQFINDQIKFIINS

Broadly, the EC50 is the concentration giving half of the maximal effect. Regarding `Oc1[nH]c(N=C2N=c3ccccc3=N2)c2ccccc12`, the EC50 was > 20 µM (inactive).

Source of the values: PubChem BioAssay AID602178 (NMMLSC, 2012).
